Experimental data taken from patent publication US8609391B2, “Mannose-6-phosphate isomerase, mutant thereof, and use thereof” (Konkuk University Industrial Cooperation Corp., priority 2009, dated 2013).

Experiments:
[1] = target: T1, Thermus thermophilus mannose-6-phosphate isomerase, wild type, Sequence No. 1 (gene SEQ ID NO: 3) (Thermus thermophilus, UniProt Q5SIM4); assay: Kinetic parameters to L-ribulose, wild enzyme; type: biochemical; settings: 75° C., pH 7.0, 0.5 mM Cu^2+
T1 sequence (Q5SIM4 1-254): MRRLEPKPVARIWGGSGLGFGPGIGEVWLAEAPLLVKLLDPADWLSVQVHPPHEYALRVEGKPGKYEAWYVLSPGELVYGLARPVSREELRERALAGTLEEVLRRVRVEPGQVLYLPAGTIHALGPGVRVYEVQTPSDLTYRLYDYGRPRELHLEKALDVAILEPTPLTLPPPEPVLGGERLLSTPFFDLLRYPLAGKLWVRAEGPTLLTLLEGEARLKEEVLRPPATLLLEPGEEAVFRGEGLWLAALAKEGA
Protocol: (§1) The experiment for measuring and comparing specific activities of the mannose-6-isomerase and mutant enzyme to L-ribulose was performed.
(§2) The enzyme reaction was performed at 75° C. for 5 minutes using 50 mM PIPES buffer solution (pH 7.0) including 10 mM ribulose and the metal ion of 0.5 mM Cu^2+ and then again stopped by adding a final concentration of 200 mM hydrogen chloride. In the present invention, the enzyme activity was measured by using […] as a substrate, and one unit of the enzyme activity was defined as the amount of enzyme required to produce 1 nmole of L-Ribose per 1 minute at 75° C. and pH 7.0 for a smooth comparative analysis. In addition, when measuring the enzyme activity, the analysis of the concentrations of ribose and ribulose, and other sugars was performed by using Bio liquid chromatography (Bio-LC) system (DIONEX ICS-3000, Sunnylvale, Calif., USA) installed with CarboPacPA and an electrochemical detector. At this point, 200 mM sodium hydroxide (NaOH) was passed through the CarboPacPA column at the rate of 1 ml/min at 30° C.

[2] = target: T2, Thermus thermophilus mannose-6-phosphate isomerase (Sequence No. 1) variant R142A (Thermus thermophilus, UniProt Q5SIM4, R142A); assay: Kinetic parameters to L-ribulose, R142A mutant; type: biochemical; settings: 75° C., pH 7.0, 0.5 mM Cu^2+
T2 construct: site-directed mutant
Protocol: as §1, §2

[3] = target: T3, Thermus thermophilus mannose-6-phosphate isomerase (Sequence No. 1) variant R142N (gene SEQ ID NO: 5) (Thermus thermophilus, UniProt Q5SIM4, R142N); assay: Kinetic parameters to L-ribulose, R142N mutant; type: biochemical; settings: 75° C., pH 7.0, 0.5 mM Cu^2+
T3 construct: site-directed mutant
T3 sequence (Q5SIM4 1-254 R142N): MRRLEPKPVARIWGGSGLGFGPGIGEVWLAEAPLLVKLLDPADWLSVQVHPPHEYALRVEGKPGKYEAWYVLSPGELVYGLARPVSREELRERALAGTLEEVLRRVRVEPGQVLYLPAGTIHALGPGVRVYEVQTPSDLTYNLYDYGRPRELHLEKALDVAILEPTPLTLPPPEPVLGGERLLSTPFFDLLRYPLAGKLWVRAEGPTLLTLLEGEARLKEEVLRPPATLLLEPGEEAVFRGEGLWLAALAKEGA
Protocol: as §1, §2

[4] = target: T4, Thermus thermophilus mannose-6-phosphate isomerase (Sequence No. 1) variant R142K (Thermus thermophilus, UniProt Q5SIM4, R142K); assay: Kinetic parameters to L-ribulose, R142K mutant; type: biochemical; settings: 75° C., pH 7.0, 0.5 mM Cu^2+
T4 construct: site-directed mutant
Protocol: as §1, §2

[5] = target: T5, Thermus thermophilus mannose-6-phosphate isomerase (Sequence No. 1) variant R142E (Thermus thermophilus, UniProt Q5SIM4, R142E); assay: Kinetic parameters to L-ribulose, R142E mutant; type: biochemical; settings: 75° C., pH 7.0, 0.5 mM Cu^2+
T5 construct: site-directed mutant
Protocol: as §1, §2

[6] = target: T6, Thermus thermophilus mannose-6-phosphate isomerase (Sequence No. 1) variant R142Y (Thermus thermophilus, UniProt Q5SIM4, R142Y); assay: Kinetic parameters to L-ribulose, R142Y mutant; type: biochemical; settings: 75° C., pH 7.0, 0.5 mM Cu^2+
T6 construct: site-directed mutant
Protocol: as §1, §2

[7] = substrate: O=C(CO)[C@@H](O)[C@@H](O)CO; assay: Kinetic parameters to L-ribulose, R142N mutant; type: biochemical, Thermus thermophilus; settings: other: 75° C., pH 7.0, 0.5 mM Cu^2+
Protocol: as §1, §2

[8] = substrate: O=C(CO)[C@@H](O)[C@@H](O)CO; assay: Kinetic parameters to L-ribulose, wild enzyme; type: biochemical, Thermus thermophilus; settings: other: 75° C., pH 7.0, 0.5 mM Cu^2+
Protocol: as §1, §2

T4 sequence (Q5SIM4 entry or part of it R142K): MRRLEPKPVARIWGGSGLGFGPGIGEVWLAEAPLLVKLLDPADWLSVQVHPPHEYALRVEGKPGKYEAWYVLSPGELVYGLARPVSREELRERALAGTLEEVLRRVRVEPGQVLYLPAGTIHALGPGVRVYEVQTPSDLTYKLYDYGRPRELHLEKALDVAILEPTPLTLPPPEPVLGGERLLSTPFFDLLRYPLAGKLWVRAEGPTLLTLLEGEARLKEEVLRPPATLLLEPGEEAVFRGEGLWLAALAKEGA
T5 sequence (Q5SIM4 entry or part of it R142E): as the sequence (Q5SIM4 entry or part of it R142K) above, with K142E counted along it
T6 sequence (Q5SIM4 entry or part of it R142Y): as the sequence (Q5SIM4 entry or part of it R142K) above, with K142Y counted along it
T2 sequence (Q5SIM4 entry or part of it R142A): as the sequence (Q5SIM4 entry or part of it R142K) above, with K142A counted along it

For `O=C(CO)[C@@H](O)[C@@H](O)CO` [L-ribulose], which kcat [1] is on record?
Its kcat is 50644 ± 709 s⁻¹.

And the kcat/Km [1]?
Its kcat/Km is 374000 ± 11000 M⁻¹ s⁻¹.

And the kcat [2]?
The kcat was 64873 ± 908 s⁻¹.

And the kcat/Km [2]?
Its kcat/Km is 353000 ± 11000 M⁻¹ s⁻¹.

What about the kcat [3] of the same molecule?
Its kcat is 81063 ± 1329 s⁻¹.

What about the kcat/Km [3] of the same molecule?
Its kcat/Km is 579000 ± 20000 M⁻¹ s⁻¹.

And the “increase of catalytic efficiency as compared to the wild enzyme” value ([3]; ratio R142N / wild)?
Its value is 1.5 fold.

What about the kcat [4] of the same molecule?
The kcat was 68877 ± 964 s⁻¹.

What about the kcat/Km [4] of the same molecule?
The kcat/Km was 302000 ± 9000 M⁻¹ s⁻¹.

And the kcat [5]?
Its kcat is 32666 ± 536 s⁻¹.

What about the kcat/Km [5] of the same molecule?
Its kcat/Km is 216000 ± 8000 M⁻¹ s⁻¹.

What about the kcat [6] of the same molecule?
Its kcat is 56178 ± 865 s⁻¹.

What about the kcat/Km [6] of the same molecule?
Its kcat/Km is 182000 ± 5000 M⁻¹ s⁻¹.

B1: Thermus thermophilus mannose-6-phosphate isomerase (Sequence No. 1) variant R142N (gene SEQ ID NO: 5) (Thermus thermophilus HB8; R142N) (protein)
chain: MRRLEPKPVARIWGGSGLGFGPGIGEVWLAEAPLLVKLLDPADWLSVQVHPPHEYALRVEGKPGKYEAWYVLSPGELVYGLARPVSREELRERALAGTLEEVLRRVRVEPGQVLYLPAGTIHALGPGVRVYEVQTPSDLTYNLYDYGRPRELHLEKALDVAILEPTPLTLPPPEPVLGGERLLSTPFFDLLRYPLAGKLWVRAEGPTLLTLLEGEARLKEEVLRPPATLLLEPGEEAVFRGEGLWLAALAKEGA
notes: site-directed mutant
B1 was tested. Which kcat/Km [7] did it give?
Its kcat/Km is 579000 M⁻¹ s⁻¹.

B2: Thermus thermophilus mannose-6-phosphate isomerase, wild type, Sequence No. 1 (gene SEQ ID NO: 3) (Thermus thermophilus HB8) (protein)
chain: MRRLEPKPVARIWGGSGLGFGPGIGEVWLAEAPLLVKLLDPADWLSVQVHPPHEYALRVEGKPGKYEAWYVLSPGELVYGLARPVSREELRERALAGTLEEVLRRVRVEPGQVLYLPAGTIHALGPGVRVYEVQTPSDLTYRLYDYGRPRELHLEKALDVAILEPTPLTLPPPEPVLGGERLLSTPFFDLLRYPLAGKLWVRAEGPTLLTLLEGEARLKEEVLRPPATLLLEPGEEAVFRGEGLWLAALAKEGA
Which kcat/Km [8] does the source give for B2 here?
Its kcat/Km is 374000 M⁻¹ s⁻¹.
